The source of these data is ChEMBL document CHEMBL1152560, “Substituted 2-arylbenzothiazoles as kinase inhibitors: hit-to-lead optimization” (Bioorg Med Chem, 2009).

Broadly, the residual activity is the signal under treatment as a percentage of the control signal.

In test [1] the target is Serine/threonine-protein kinase PAK 5 (Homo sapiens) (UniProt Q9P286). Kind of test: Residual activity of PAK7 at 10 uM by microplate scintillation counting.
Test [2] deals with T1, Serine/threonine-protein kinase D2 (Homo sapiens) (UniProt Q9BZL6).
T1 sequence (whole entry): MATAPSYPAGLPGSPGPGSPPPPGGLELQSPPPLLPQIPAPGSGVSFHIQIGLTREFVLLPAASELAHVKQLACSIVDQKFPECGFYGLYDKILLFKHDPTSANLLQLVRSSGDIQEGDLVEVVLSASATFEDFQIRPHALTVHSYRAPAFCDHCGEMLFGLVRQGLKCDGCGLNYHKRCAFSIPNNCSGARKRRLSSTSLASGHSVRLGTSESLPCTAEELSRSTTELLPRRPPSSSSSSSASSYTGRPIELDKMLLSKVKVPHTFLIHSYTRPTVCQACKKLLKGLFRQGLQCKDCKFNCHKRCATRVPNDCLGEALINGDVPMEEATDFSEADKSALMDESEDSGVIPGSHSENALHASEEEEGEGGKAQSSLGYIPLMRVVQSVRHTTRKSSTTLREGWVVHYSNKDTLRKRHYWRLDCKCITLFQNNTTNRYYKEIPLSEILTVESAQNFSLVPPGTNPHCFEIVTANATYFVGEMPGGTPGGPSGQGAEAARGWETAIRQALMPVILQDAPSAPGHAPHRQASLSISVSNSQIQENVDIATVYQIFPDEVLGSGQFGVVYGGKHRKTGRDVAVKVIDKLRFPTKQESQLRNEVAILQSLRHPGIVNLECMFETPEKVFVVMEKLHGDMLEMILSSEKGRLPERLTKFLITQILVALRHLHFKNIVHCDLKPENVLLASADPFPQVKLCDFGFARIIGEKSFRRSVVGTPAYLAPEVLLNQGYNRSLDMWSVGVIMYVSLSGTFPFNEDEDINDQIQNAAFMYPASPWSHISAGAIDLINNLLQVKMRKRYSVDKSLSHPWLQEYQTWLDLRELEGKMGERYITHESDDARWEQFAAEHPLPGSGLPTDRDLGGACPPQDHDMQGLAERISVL
As to the kind of experiment: Residual activity of PRKD2 at 0.1 uM by microplate scintillation counting.

Test [3] deals with T2, Serine/threonine-protein kinase Nek3 (Homo sapiens) (UniProt P51956).
T2 sequence (whole entry): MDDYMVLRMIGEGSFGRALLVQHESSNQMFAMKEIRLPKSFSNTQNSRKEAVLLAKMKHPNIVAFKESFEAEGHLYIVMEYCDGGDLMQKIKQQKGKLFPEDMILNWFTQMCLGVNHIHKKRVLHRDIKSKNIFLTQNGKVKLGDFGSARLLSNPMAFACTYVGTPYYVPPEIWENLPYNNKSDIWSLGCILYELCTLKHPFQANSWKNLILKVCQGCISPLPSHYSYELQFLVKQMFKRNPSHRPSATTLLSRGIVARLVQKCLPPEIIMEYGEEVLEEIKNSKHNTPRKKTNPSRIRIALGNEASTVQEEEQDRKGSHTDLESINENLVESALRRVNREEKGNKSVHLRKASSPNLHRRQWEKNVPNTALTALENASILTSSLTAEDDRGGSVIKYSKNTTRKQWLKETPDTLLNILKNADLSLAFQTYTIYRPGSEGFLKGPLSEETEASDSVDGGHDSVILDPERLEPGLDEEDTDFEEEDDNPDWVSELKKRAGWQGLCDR
As to the kind of experiment: Residual activity of NEK3 at 1 uM by microplate scintillation counting.

Test [4] concerns the target Tyrosine-protein kinase Fgr (Homo sapiens) (UniProt P09769). As to the kind of experiment: Residual activity of FGR at 1 uM by microplate scintillation counting.
The target in test [5] is Casein kinase I isoform alpha (Homo sapiens) (UniProt P48729). As to the kind of experiment: Residual activity of CK1alpha1 at 0.1 uM by microplate scintillation counting.
The target of test [6] is G protein-coupled receptor kinase 6 (Homo sapiens) (UniProt P43250). As to the kind of experiment: Residual activity of GRK6 at 0.1 uM by microplate scintillation counting.
In test [7] the target is T3, Serine/threonine-protein kinase D1 (Homo sapiens) (UniProt Q15139).
T3 sequence (whole entry): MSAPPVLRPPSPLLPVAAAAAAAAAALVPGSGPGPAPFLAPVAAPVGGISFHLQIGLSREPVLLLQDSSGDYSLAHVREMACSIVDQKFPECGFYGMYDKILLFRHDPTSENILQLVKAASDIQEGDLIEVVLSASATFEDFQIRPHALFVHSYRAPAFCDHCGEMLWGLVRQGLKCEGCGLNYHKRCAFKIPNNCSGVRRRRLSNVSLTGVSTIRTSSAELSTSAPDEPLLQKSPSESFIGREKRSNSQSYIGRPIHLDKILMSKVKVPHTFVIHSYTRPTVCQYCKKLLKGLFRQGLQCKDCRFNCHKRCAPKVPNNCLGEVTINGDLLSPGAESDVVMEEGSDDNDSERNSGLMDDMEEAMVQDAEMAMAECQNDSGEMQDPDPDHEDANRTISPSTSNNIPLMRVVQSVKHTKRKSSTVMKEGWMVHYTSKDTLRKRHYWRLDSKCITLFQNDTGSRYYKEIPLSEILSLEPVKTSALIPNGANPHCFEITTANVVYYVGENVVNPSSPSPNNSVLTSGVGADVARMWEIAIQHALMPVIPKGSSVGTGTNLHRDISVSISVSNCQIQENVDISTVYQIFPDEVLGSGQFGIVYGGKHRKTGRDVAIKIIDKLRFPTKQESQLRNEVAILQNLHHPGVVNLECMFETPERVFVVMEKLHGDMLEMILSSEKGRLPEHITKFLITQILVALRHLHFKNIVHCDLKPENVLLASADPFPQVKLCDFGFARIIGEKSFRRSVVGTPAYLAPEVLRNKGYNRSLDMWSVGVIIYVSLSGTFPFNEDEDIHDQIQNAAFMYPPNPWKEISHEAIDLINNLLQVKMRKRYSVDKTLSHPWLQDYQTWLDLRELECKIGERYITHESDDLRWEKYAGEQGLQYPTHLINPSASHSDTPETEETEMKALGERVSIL
As to the kind of experiment: Residual activity of PKCmu at 1 uM by microplate scintillation counting.

Sequence of Serine/threonine-protein kinase PAK 5 (Homo sapiens) (Q9P286 whole entry, looked up): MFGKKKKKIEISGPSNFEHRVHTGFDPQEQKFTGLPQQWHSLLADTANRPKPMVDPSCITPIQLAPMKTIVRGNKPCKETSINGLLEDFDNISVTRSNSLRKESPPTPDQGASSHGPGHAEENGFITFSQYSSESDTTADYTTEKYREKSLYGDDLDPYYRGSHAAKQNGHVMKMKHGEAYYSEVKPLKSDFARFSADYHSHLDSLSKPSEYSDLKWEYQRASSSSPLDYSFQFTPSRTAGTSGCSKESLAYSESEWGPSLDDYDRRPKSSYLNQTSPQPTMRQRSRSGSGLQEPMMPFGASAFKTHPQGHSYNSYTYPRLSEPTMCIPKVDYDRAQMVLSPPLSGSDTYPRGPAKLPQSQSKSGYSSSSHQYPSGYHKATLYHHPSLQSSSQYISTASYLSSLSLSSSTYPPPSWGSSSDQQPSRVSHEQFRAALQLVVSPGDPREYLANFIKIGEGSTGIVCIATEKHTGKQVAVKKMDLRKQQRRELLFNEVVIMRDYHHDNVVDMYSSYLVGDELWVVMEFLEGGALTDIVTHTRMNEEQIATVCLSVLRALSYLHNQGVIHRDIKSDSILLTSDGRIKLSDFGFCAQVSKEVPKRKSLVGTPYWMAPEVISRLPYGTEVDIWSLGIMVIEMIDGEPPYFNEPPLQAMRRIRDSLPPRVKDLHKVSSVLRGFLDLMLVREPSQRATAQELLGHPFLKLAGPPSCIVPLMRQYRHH
Sequence of G protein-coupled receptor kinase 6 (Homo sapiens) (P43250 whole entry, looked up): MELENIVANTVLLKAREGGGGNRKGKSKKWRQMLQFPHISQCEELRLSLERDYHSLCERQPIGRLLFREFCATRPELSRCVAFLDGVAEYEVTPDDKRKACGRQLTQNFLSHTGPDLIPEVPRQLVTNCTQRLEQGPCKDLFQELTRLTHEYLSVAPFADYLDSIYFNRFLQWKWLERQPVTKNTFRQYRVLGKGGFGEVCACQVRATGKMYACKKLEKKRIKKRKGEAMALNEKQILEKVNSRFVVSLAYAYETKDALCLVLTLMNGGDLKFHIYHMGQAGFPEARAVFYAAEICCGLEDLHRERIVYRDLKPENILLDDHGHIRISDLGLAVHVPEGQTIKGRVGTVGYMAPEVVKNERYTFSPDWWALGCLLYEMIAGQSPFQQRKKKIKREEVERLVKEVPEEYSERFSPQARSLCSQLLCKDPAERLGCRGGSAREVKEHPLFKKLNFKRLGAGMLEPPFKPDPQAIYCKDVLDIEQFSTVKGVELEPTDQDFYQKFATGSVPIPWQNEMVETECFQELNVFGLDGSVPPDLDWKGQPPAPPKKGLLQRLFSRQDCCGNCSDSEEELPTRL
Sequence of Tyrosine-protein kinase Fgr (Homo sapiens) (P09769 2-529 limits assumed): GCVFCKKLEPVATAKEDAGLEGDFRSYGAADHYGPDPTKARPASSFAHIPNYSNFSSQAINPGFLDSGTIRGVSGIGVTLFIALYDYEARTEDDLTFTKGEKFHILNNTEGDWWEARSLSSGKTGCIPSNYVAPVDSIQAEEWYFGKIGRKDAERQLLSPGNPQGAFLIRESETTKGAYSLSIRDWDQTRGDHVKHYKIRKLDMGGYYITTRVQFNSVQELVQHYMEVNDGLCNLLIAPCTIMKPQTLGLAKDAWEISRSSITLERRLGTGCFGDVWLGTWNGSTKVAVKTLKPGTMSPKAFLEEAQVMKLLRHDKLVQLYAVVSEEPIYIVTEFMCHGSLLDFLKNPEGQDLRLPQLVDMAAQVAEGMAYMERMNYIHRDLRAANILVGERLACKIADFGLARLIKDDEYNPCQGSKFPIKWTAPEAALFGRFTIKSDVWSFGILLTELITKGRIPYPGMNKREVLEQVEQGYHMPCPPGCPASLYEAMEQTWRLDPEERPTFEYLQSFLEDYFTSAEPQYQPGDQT
Sequence of Casein kinase I isoform alpha (Homo sapiens) (P48729 2-337 limits assumed): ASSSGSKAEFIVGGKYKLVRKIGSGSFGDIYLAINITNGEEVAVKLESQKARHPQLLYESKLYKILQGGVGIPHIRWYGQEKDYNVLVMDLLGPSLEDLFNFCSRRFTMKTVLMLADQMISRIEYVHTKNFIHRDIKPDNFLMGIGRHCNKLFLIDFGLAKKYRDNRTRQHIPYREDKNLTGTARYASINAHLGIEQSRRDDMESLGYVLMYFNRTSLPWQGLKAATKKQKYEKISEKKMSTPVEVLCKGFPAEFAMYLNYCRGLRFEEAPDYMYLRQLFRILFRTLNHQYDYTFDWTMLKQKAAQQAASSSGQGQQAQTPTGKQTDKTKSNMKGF

For the compound `COc1cc2c(Oc3ccc(-c4nc5ccccc5s4)cc3F)ncnc2cc1OCCCN1CCN(C)CC1`, the residual activity turned out to be 49% in test [1]; 95% in test [2]; 103% in test [3]; 91% in test [4]; 93% in test [5]; 88% in test [6]. Also, the residual activity in test [7] stood at 89%.

Regarding `COc1cc2c(Oc3ccc(-c4nc5ccccc5s4)cc3)ncnc2cc1OCCCN1CCN(C)CC1`, the residual activity in test [1] is 45%; in test [2], 82%; in test [3], 102%; in test [4], 101%; in test [5], 101%; in test [6], 79%. Also, the residual activity in test [7] is 89%.

Consider `COc1cc2c(Oc3ccc(-c4nc5ccccc5s4)cc3)ncnc2cc1OCCCN1CCCC1`, for which the residual activity was 84% in test [1]; 89% in test [2]; 110% in test [3]; 94% in test [4]; 102% in test [5]; 88% in test [6]. Also, the residual activity in test [7] was 100%.
